From patent US12391701B2, “Chromene-based compounds, methods and uses thereof” (University of Minho, priority 2019, dated 2025)
Where two headings read alike, the source gives them in different places.

Key:
Type in all cases: cell-based
[1] = system: renal carcinoma cell line Caki-2; assay: Cell viability (sulforhodamine B), Caki-2; settings: Homo sapiens, Table 5
Description: (§1) In an embodiment, the antiproliferative activity of the compounds was further determined against renal carcinoma cell lines and non-neoplastic kidney cell line.
(§2) In an embodiment, three human breast cancer cell lines Hs578T, MDA-MB-468 and MCF-7, and a normal breast cell line MCF-10A, were obtained from ATCC (American Type Culture Collection). The cancer cell lines were cultured in Dulbecco's modified Eagle medium, 4.5 g/l glucose (DMEM, Gibco) supplemented with 10% heating inactivated Fetal Bovine Serum (FBS, Gibco) and 1% antibiotic solution (Penicillin-Streptomycin, Gibco). The normal cell line was cultured in Dulbecco's Modified Eagle Medium: Nutrient Mixture F-12 (DMEM/F12, Gibco) supplemented with 5% heating inactivated FBS (Gibco), 1% antibiotic solution (Penicillin-Streptomycin, Gibco), 1% steroid hormone (Hydrocortisone, Sigma-Aldrich), 0.1% peptide hormone (Insulin, Sigma-Aldrich) and 0.01% protein complex (Cholera Toxin, Gibco). Two distinct human acute myeloid leukemia (AML) cell lines, HL-60 (FAB M2) and KG-1 (erythroleukemia-FAB M6), and one human lymphoblastic leukemia (ALL) cell line, Jurkat (T cell type), were also used. These three cell lines were obtained from German Collection of Microorganisms and Cell cultures (DMSZ®, Deutsche Sammlung von Mikroorganismen and Zellkulturen in German). Cells were cultured in RPMI 1640 medium (Biochrom®-Merck Millipore) supplemented with 10% heating inactivated FBS (Biochrom®-Merck Millipore) and 1% antibiotic/antimitotic mixture (Invitrogen®). Three human glioblastoma (GBM) cell line models, two established and commercially available cell lines (U87MG and GAMG, kind gift from Rui M. Reis) and one primary GBM culture (GLIB) were also used. GBM cells were cultures in DMEM (Biochrom-Merck Millipore), all supplemented with 10% FBS. The Renal cell carcinoma cell lines A498, 786-O, Caki-2 and HK2 were obtained from ATCC. The cancer cell line A498 was cultured in MEM medium (Biochrom®-Merck Millipore), 786-O was cultured in RPMI 1640 medium (Biochrom®-Merck Millipore), Caki-2 was cultured in Mc Coys medium (Biochrom®-Merck Millipore) and HK2 was cultured in RPMI 1640 medium (Biochrom®-Merck Millipore). All the media were supplemented with 10% heat inactivated FBS (Biochrom®-Merck Millipore) and 1% antibiotic/antimitotic mixture (Invitrogen®). All cells were grown in a humidified incubator at 37° C. and 5% CO2. For all assays, DMSO (Dimethyl Sulfoxide, Sigma-Aldrich) controls were used.
(§3) In an embodiment, cell viability assays were performed. MCF-7, Hs578T and MCF-10A cells were plated in triplicate in 96-multiwell culture plates, at 3000 cells per mL, or 5000 cells per mL for MDA-MB-468 (100 μL/well). The cells were then allowed to adhere in complete medium, over a period of 18-20 hours. Cells were subsequently treated with 7 different concentrations (from 0.1 to 40 μM or 5 to 60 μM) of compounds or control in fresh medium. HL-60, KG-1 and Jurkat cell lines were plated in 96-multiwell culture plates at 50.000 cells/100 μL per well and treated with different concentrations (from 0.001 to 2 μM) of the compounds described (or control). Cells were plated, in triplicate, at an initial density of 2000 cells/well for GAMG, 4000 cells/well for GL18 and 6000 cells/well for U87MG, in 96-well plates, and allowed to adhere for 18-20 hours. Cells were then treated with different concentrations of the compounds (0.005 to 100 μM) or with control. A498 and 786-O cells were plated at 2000 cells per mL, Caki-2 cells were plated at 3000 cells per mL and HK2 cells were plated at 2000 cells per mL in triplicate, in 96-multiwell culture plates (100 μL/well), and allowed to adhere over a period of 18-20 hours in complete medium. The cells were then treated with 7 different concentrations (from 0.1 to 40 μM or 5 to 60 μM) of compounds or control in fresh medium. […]

[2] = system: breast cancer cell line MCF-7; assay: Cell viability assay (MTS), MCF-7; settings: Homo sapiens, MCF7; 72 h incubation
Description: (§4) In an embodiment, the cell growth inhibition and IC50 values of the synthesised and isolated chromene-based compounds were determined as part of the evaluation of the antiproliferative activity of the isolated agents. A complete study on the structure-activity relationship was performed for all the synthesised compounds. The antiproliferative activity against MCF-7 breast cancer cell lines were analysed. […] The non-neoplastic cell line MCF-10A was also used to determine the selectivity of the compounds for the tumour cells. For compounds with an IC50 value (concentration required to reduce cell viability by 50%) higher than 20 μM, the IC50 value was not determined. Selectivity index (SI) was calculated in order to evaluate the cytotoxicity of the tested compounds.
as §2
(§5) In an embodiment, cell viability assays were performed. MCF-7, Hs578T and MCF-10A cells were plated in triplicate in 96-multiwell culture plates, at 3000 cells […], or 5000 cells […] for MDA-MB-468 (100 μL/well). The cells were then allowed to adhere in complete medium, over a period of 18-20 hours. Cells were subsequently treated with 7 different concentrations (from 0.1 to 40 μM or 5 to 60 μM) of compounds or control in fresh medium. HL-60, KG-1 and Jurkat cell lines were plated in 96-multiwell culture plates at 50.000 cells/100 μL per well and treated with different concentrations (from 0.001 to 2 μM) of the compounds described (or control). Cells were plated, in triplicate, at an initial density of 2000 cells/well for GAMG, 4000 cells/well for GL18 and 6000 cells/well for U87MG, in 96-well plates, and allowed to adhere for 18-20 hours. […]

[3] = system: non-neoplastic cell line (HK2); assay: Cell viability, HK2
Description: as §1, §2, §3

[4] = system: renal carcinoma cell line 786-O; assay: Cell viability (sulforhodamine B), 786-O; settings: Homo sapiens, 786-0; Table 5
Description: as §1, §2, §3

[5] = system: non-neoplastic cell line MCF-10A; assay: Cell viability assay (MTS), MCF-10A; settings: Homo sapiens, 72 h incubation
Description: as §4, §2, §5

[6] = Table 6, read-out: IC50 (μM) HK2

Compound | IC50 [1] [nM] | IC50 [2] [nM] | IC50 ([3]; Table 5, read-out: IC50 HK2) [µM] | IC50 [3, 6] [µM] | IC50 [4] [nM] | IC50 [5] [nM]
COc1cccc2c1Oc1nc(-c3ccccc3)[nH]c1C2 [MC350, 5-methoxy-2-phenyl-3,9-dihydrochromeno[2,3-d]imidazoles] | 394 | 740 | 21.5 | 21.5 | 513 | 8460
COc1cccc2c1Oc1nc(-c3ccccc3F)[nH]c1C2C1c2cccc(OC)c2Oc2nc(-c3ccccc3F)[nH]c21 (stereo not drawn) [MC369, 2,2′-bis(2-fluorophenyl)-5,5′-dimethoxy-1,1,9,9′-tetrahydro-9,9′-bichromeno[2,3-]imidazoles] | 109 | 260 | 0.83 |  | 53 | > 20000
COc1cccc2c1Oc1nc(-c3ccc(F)cc3)[nH]c1C2C1c2cccc(OC)c2Oc2nc(-c3ccc(F)cc3)[nH]c21 (stereo not drawn) [MC406, 2,2′-bis(4-fluorophenyl)-5,5′-dimethoxy-1,1,9,9′-tetrahydro-9,9′-bichromeno[2,3-]imidazoles] | 178 | 200 | 0.31 |  | 84 | 12700
COc1cccc2c1Oc1nc(-c3ccccc3F)[nH]c1C2 [MC407, 2-(2-fluorophenyl)-5-methoxy-3,9-dihydrochromeno[2,3-d]imidazoles] | 433 | 670 | 1.03 |  | 673 | 3930
COc1cccc2c1Oc1nc(-c3ccc(Br)cc3)[nH]c1C2 [MC408, 2-(4-bromophenyl)-5-methoxy-3,9-dihydrochromeno[2,3-d]imidazoles] | 89 | 620 | 3.49 | 3.49 | 64 | 2990
COc1cccc2c1Oc1nc(-c3ccc(F)cc3)[nH]c1C2 [MC409, 2-(4-fluorophenyl)-5-methoxy-3,9-dihydrochromeno[2,3-d]imidazoles] | 359 | 650 | 3.49 | 3.49 | 495 | 14300
COc1cccc2c1Oc1nc(-c3cc(F)cc(F)c3O)[nH]c1C2 [MC410, 2,4-difluoro-6-(5-methoxy-3,9-dihydrochromeno[2,3-d]imidazol-2-yl)phenol] | 8530 | 3530 | 23.1 | 23.1 | 446 | > 30000
COc1ccccc1-c1nc2c([nH]1)Cc1cccc(OC)c1O2 [MC411, 5-methoxy-2-(2-methoxyphenyl)-3,9-dihydrochromeno[2,3-]imidazoles] | 3960 | 1710 | 4.73 | 4.73 | 3730 | 6820
COc1cccc2c1Oc1nc(-c3ccc(O)cc3)[nH]c1C2 [MC413, 4-(5-methoxy-3,9-dihydrochromeno[2,3-d]imidazol-2-yl)phenol] | 381 | 1090 | 10.3 | 10.3 | 728 | > 20000
CCOc1ccc(-c2nc3c([nH]2)Cc2cccc(OC)c2O3)cc1 [MC415, 2-(4-ethoxyphenyl)-5-methoxy-3,9-dihydrochromeno[2,3-d]imidazoles] | 62 | 1640 | 5.24 | 5.24 | 221 | 1900
COc1ccc(-c2nc3c([nH]2)Cc2cccc(OC)c2O3)c(Br)c1O [MC416, 2-bromo-6-methoxy-3-(5-methoxy-3,9-dihydrochromeno[2,3-]imidazol-2-yl)phenol] | 2540 | 1040 | 4.72 | 4.72 | 3140 | 1990
COc1cccc2c1Oc1nc(-c3ccc(Br)cc3)[nH]c1C2C1c2cccc(OC)c2Oc2nc(-c3ccc(Br)cc3)[nH]c21 (stereo not drawn) [MC421, 2,2′-bis(4-bromophenyl)-5,5′-dimethoxy-1,1,9,9′-tetrahydro-9,9′-bichromeno[2,3-]imidazoles] | 431 | 310 | 2.49 | 2.49 | 77 | > 30000
